According to patent publication US20250205259A1, “CLASS OF 7-((FIVE-MEMBERED HETEROCYCLIC)METHYL)-8-CARBOXYLIC ACID-BENZO CYCLIC BORATE DERIVATIVES AND USES THEREOF” (priority 2022, published 2025):
pIC50: −log10 of the molar value. Read-outs that look alike come from different tables or passages of the source.

Key:
Format in all cases: biochemical
CTX-M-14 = CTX-M-14 (Escherichia coli, UniProt Q9L5C7); test: Inhibitory activity on SBL, fluorescent substrate FC-5; conditions: for pIC50: read-out: Inhibitory activity on SBL CTX-M-14 (IC50 class); for inhibitory activity on CTX-M-14 compared to avibactam: comparison in words
VIM-2 = VIM-2 (Escherichia coli, UniProt Q5U7L7); test: Inhibitory activity on MBL, fluorescent substrate FC-5; conditions: read-out: Inhibitory activity on MBL VIM-2 (IC50 class)
TEM-1 = TEM-1 (Escherichia coli, UniProt P62593); test: Inhibitory activity on SBL, fluorescent substrate FC-5; conditions: for pIC50: read-out: Inhibitory activity on SBL TEM-1 (IC50 class); for inhibitory activity on TEM-1 compared to avibactam: comparison in words
KPC-2 = KPC-2 (Klebsiella pneumoniae, UniProt Q9F663); test: as above; conditions: for pIC50: read-out: Inhibitory activity on SBL KPC-2 (IC50 class); for inhibitory activity on KPC-2 compared to avibactam: comparison in words
OXA-48 = OXA-48 (Klebsiella pneumoniae, UniProt Q6XEC0); test: as above; conditions: for pIC50: read-out: Inhibitory activity on SBL OXA-48 (IC50 class); for inhibitory activity on OXA-48 compared to avibactam: comparison in words
IMP-1 = IMP-1 (Serratia marcescens, UniProt P52699); test: Inhibitory activity on MBL, fluorescent substrate FC-5; conditions: read-out: Inhibitory activity on MBL IMP-1 (IC50 class)
NDM-1 = NDM-1 (Klebsiella pneumoniae, UniProt C7C422); test: as above
VIM-1 = VIM-1 (Pseudomonas aeruginosa, UniProt A0A0F7KYQ8); test: as above
SHV-12 = molecular target: T1, SHV-12 (UniProt P0AD64, L31Q/G234S/E235K, species not given); test: Inhibitory activity on SBL, fluorescent substrate FC-5; conditions: read-out: Inhibitory activity on SBL SHV-12 (IC50 class)
T1 sequence (P0AD64 1-286 L31Q/G234S/E235K): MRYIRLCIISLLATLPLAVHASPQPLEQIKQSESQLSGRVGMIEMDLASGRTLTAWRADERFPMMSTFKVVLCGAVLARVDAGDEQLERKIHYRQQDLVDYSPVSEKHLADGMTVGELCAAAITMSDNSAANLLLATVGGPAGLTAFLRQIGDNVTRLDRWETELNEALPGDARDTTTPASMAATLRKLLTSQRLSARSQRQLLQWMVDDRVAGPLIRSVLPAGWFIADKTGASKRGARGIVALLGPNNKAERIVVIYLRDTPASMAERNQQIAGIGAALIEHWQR

NDM-5 = NDM-5 (Klebsiella pneumoniae, UniProt C7C422, M154L/V88L); test: Inhibitory activity on MBL, fluorescent substrate FC-5
[1] = read-out: Inhibitory activity on MBL NDM-1 (IC50 class)
[2] = VIM-1 and/or VIM-2, read-out: inhibitory activity at a nanomolar-level on VIM-1 and/or VIM-2
[3] = read-out: Inhibitory activity on MBL VIM-1 (IC50 class)
[4] = read-out: Inhibitory activity on MBL NDM-5 (IC50 class)
[5] = read-out: inhibitory activity at a nanomolar-level on NDM-1
[6] = read-out: inhibitory activity at a nanomolar-level on NDM-5

Chain of CTX-M-14 (Q9L5C7 entry or part of it): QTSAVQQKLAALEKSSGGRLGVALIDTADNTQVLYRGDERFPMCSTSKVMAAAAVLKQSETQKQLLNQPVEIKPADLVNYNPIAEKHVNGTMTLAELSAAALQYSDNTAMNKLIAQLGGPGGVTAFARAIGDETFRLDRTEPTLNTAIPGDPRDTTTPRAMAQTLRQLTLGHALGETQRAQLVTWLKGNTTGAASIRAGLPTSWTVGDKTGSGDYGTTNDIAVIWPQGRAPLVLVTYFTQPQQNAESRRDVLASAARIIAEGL
Chain of KPC-2 (Q9F663 25-293 limits assumed): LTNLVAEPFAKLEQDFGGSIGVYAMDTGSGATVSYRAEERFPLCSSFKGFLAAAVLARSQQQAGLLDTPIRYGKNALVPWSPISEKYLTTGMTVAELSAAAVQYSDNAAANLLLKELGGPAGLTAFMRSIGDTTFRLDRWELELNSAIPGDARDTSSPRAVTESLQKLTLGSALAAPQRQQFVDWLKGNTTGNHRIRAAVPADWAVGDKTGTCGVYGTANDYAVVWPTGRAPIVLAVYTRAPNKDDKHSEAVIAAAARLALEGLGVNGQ
Chain of IMP-1 (P52699 19-246 limits assumed): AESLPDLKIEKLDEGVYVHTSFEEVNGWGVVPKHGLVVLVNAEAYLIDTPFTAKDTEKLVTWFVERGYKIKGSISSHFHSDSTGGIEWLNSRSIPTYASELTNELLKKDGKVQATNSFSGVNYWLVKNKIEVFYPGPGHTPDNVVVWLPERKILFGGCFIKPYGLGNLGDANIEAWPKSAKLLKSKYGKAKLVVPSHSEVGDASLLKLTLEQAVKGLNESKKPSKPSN
Chain of NDM-5 (C7C422 29-270 V88L/M154L): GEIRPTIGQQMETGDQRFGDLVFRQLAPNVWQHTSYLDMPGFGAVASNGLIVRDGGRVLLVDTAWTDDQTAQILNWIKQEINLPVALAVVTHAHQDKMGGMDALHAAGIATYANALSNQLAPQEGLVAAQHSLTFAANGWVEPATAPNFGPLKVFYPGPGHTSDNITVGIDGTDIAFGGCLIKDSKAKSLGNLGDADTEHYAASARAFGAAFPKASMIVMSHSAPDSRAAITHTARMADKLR
Chain of TEM-1 (P62593 24-286 limits assumed): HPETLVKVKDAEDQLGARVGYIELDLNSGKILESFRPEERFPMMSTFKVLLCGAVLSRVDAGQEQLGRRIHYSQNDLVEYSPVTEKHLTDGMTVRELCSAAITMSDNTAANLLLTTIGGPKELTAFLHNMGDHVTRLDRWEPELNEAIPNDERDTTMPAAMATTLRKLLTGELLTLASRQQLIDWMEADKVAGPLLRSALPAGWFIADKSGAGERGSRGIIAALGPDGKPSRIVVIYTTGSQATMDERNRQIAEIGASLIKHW
Chain of OXA-48 (Q6XEC0 23-265 limits assumed): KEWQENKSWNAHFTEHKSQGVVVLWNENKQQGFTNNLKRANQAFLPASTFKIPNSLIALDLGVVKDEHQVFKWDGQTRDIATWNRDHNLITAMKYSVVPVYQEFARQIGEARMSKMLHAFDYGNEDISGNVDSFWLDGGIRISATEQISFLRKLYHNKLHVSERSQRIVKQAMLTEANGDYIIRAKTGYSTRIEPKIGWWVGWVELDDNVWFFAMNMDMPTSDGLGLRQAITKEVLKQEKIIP
Chain of NDM-1 (C7C422 29-270 limits assumed): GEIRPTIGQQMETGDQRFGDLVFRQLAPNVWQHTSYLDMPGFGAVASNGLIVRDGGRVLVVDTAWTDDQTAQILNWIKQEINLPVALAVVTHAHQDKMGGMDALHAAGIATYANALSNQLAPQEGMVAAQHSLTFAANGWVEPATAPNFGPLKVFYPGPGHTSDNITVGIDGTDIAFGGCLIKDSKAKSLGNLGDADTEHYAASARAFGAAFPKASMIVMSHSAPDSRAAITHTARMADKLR

Structure (SMILES)	pIC50 (CTX-M-14)	pIC50 (VIM-2)	pIC50 (TEM-1)	pIC50 (KPC-2)	pIC50 (OXA-48)	pIC50 (IMP-1)	pIC50 (NDM-1; [1])	pIC50 (VIM-1; [2])	pIC50 (VIM-1; [3])	pIC50 (SHV-12)	pIC50 (NDM-5; [4])	pIC50 (NDM-1; [5])	pIC50 (NDM-5; [6])	inhibitory activity on CTX-M-14 compared to avibactam (CTX-M-14)	inhibitory activity on TEM-1 compared to avibactam (TEM-1)	inhibitory activity on KPC-2 compared to avibactam (KPC-2)	inhibitory activity on OXA-48 compared to avibactam (OXA-48)
O=C(O)c1c(Cn2cc(CN3CCCC3)nn2)ccc2c1OB(O)CC2 [Compound 5]	6.00 to 8.00	6.00 to 8.00	6.00 to 8.00	> 8.00	6.00 to 8.00	4.00 to 6.00	4.00 to 6.00	> 6.00	4.00 to 6.00	6.00 to 8.00	6.00 to 8.00						
N#CCCCc1cn(Cc2ccc3c(c2C(=O)O)OB(O)CC3)nn1 [Compound 6]	6.00 to 8.00	6.00 to 8.00	6.00 to 8.00	> 8.00	6.00 to 8.00	4.00 to 6.00	4.00 to 6.00	> 6.00	4.00 to 6.00	6.00 to 8.00	6.00 to 8.00						
O=C(O)c1c(Cn2cncn2)ccc2c1OB(O)CC2 [Compound 13]	> 8.00	6.00 to 8.00	6.00 to 8.00	> 8.00	> 8.00	4.00 to 6.00	6.00 to 8.00	> 6.00	4.00 to 6.00	6.00 to 8.00	6.00 to 8.00	> 6.00	> 6.00				
O=C(O)c1c(Cn2cccn2)ccc2c1OB(O)CC2 [Compound 14]	> 8.00	6.00 to 8.00	6.00 to 8.00	> 8.00	> 8.00	4.00 to 6.00	6.00 to 8.00	> 6.00	4.00 to 6.00	6.00 to 8.00	6.00 to 8.00	> 6.00	> 6.00				
O=C(O)c1c(Cn2cc(F)cn2)ccc2c1OB(O)CC2 [Compound 15]	6.00 to 8.00	6.00 to 8.00	6.00 to 8.00	> 8.00	6.00 to 8.00	4.00 to 6.00	6.00 to 8.00	> 6.00	4.00 to 6.00	6.00 to 8.00	6.00 to 8.00	> 6.00	> 6.00				
O=C(O)c1c(Cn2cc(C(F)(F)F)cn2)ccc2c1OB(O)CC2 [Compound 16]	> 8.00	6.00 to 8.00	6.00 to 8.00	> 8.00	> 8.00	4.00 to 6.00	6.00 to 8.00	> 6.00	4.00 to 6.00	6.00 to 8.00	6.00 to 8.00	> 6.00	> 6.00				
N#Cc1cnn(Cc2ccc3c(c2C(=O)O)OB(O)CC3)c1 [Compound 17]	6.00 to 8.00	6.00 to 8.00	> 8.00	> 8.00	> 8.00	4.00 to 6.00	6.00 to 8.00	> 6.00	4.00 to 6.00	6.00 to 8.00	6.00 to 8.00	> 6.00	> 6.00	better or comparable	better or comparable	better or comparable	better or comparable
N#Cc1ccn(Cc2ccc3c(c2C(=O)O)OB(O)CC3)n1 [Compound 18]	6.00 to 8.00	6.00 to 8.00	> 8.00	> 8.00	> 8.00	4.00 to 6.00	6.00 to 8.00	> 6.00	4.00 to 6.00	6.00 to 8.00	6.00 to 8.00	> 6.00	> 6.00	better or comparable	better or comparable	better or comparable	better or comparable
NC(=O)c1cnn(Cc2ccc3c(c2C(=O)O)OB(O)CC3)c1 [Compound 19]	6.00 to 8.00	6.00 to 8.00	> 8.00	> 8.00	> 8.00	4.00 to 6.00	6.00 to 8.00	> 6.00	6.00 to 8.00	6.00 to 8.00	6.00 to 8.00	> 6.00	> 6.00	better or comparable	better or comparable	better or comparable	better or comparable
NC(=O)c1ccn(Cc2ccc3c(c2C(=O)O)OB(O)CC3)n1 [Compound 20]	6.00 to 8.00	6.00 to 8.00	> 8.00	> 8.00	> 8.00	4.00 to 6.00	6.00 to 8.00	> 6.00	6.00 to 8.00	6.00 to 8.00	6.00 to 8.00	> 6.00	> 6.00				
